The text below walks through data of patent publication US20240390372A1, “METHODS OF TREATING HAIR-LOSS DISORDERS WITH TYK2 INHIBITORS” (Bristol-Myers Squibb Company, priority 2021, published 2024).

In test [1] the test system is microdissected hair follicles from human scalp. The experiment in a line: Prophylactic assay: pre-treatment before IL-12+IL-18, MHC class I and II levels. In kind it is cell-based. Here is the method: To address the role of IL-12 in AA pathobiology and its potential as a therapeutic target, microdissected hair follicles from human scalp were cultured in the presence of IL-12 (3 ng/mL) and IL-18 (20 ng/mL) and in the presence or absence of a selective allosteric TYK2 inhibitor, the compound of Formula (II) (300 nM). IFNγ (75 UI/mL) was used as a positive control to induce immune privilege (IP) collapse, and tofacitinib was used as a positive control for blocking IFNγ signaling. Hair follicle immune privilege (HF-IP) was assessed by quantitative immunohistomorphometry of MHC class I, of MHC class II, and of MHC class chain-related protein A and MHC class chain-related protein B (MICA/B).
Hair follicles were pre-treated with the compound having the structure of Formula (II) (denoted “BMS” in the figures), followed by the addition of IL-12 and IL-18, in a prophylactic assay. Tofacitinib was used as a control, for comparison. For this assay, each group included 19-40 hair follicles, obtained from 3-5 independent healthy donors. The groups were treated as follows: with vehicle, with the compound of Formula (II) (300 nM), or with tofacitinib (400 nM) for 5-6 days; on day 2 of culture, vehicle, or IL-12 (3 ng/ml) and IL-18 (20 ng/mL) were added. Levels of MHC class I and of MHC class II were assessed as described above, and FIGS. 17-22 provide the results. The graphs in FIGS. 17-20 show mean±SEM and results of the Dunn's multiple comparison test (*p<0.05; **p<0.01; ****p<0.0001). FIGS. 21 and 22 show staining of MHC-I and MHC-II, respectively, in hair follicles (scale bar=100 μm).

Test [2] relates to ex vivo cultured hair follicles. The experiment in a line: IFNγ secretion into the medium of ex vivo cultured hair follicles treated with IL-12+IL-18 (ELISA; prophylactic and therapeutic assays). The following applies: for IFNγ release into the culture medium: hair follicles treated with IL-12+IL-18, assay format not given. The class given is cell-based, human. Here is the method: (§1) Resident immune cell populations were assessed by quantification of CD3-positive cells and of CD56-positive cells. Gene expression of treated hair follicles was assessed using whole transcriptome analysis. IFNγ production was quantified by enzyme-linked immunosorbent assay (R&D systems). IL-12RB2-expressing cells were evaluated in healthy donors, acute AA patients, and chronic AA patients using immunohistomorphometry.
The effect of TYK2 inhibition on IFNγ production by hair follicles was also assessed. Specifically, two assays were performed to examine how TYK2 inhibition affects IFNγ secretion into the medium of ex vivo cultured hair follicles treated with IL-12+IL-18. In the prophylactic assay, hair follicles were pre-treated with the compound of Formula (II) or with tofacitinib, and then were cultured in the presence of IL-12+IL-18, after which IFNγ in the culture medium was measured. In the therapeutic assay, hair follicles were initially treated with IL-12±IL-18; then the compound of Formula (II) or tofacitinib was added and the culture continued, after which IFNγ in the culture medium was measured. The data in FIGS. 39 and 40 are based on the amount of IFNγ measured in pooled culture medium from n=8 hair follicles per group, obtained from 1-2 healthy donors. The graphs show mean±SEM from technical duplicates.
A general note: In an ELISA, binding on a coated surface is turned into a signal by an enzyme label.

Test [3] deals with microdissected hair follicles from human scalp. The experiment in a line: Therapeutic assay: compound added after IL-12+IL-18, T cell and NK cell expansion (CD3/CD56 immunostaining). The class given is cell-based. The following applies: 300 nM added on day 2 of IL-12+IL-18 culture. As to the method: To assess whether TYK2 inhibition can block ongoing T cell and NK cell expansion, hair follicles were first incubated with vehicle, or with IL-12+IL-18, followed by the addition of the compound of Formula (II) or of tofacitinib. Specifically, 24-33 hair follicles, obtained from 3-4 independent healthy donors, were treated with vehicle, or with IL-12 (3 ng/ml) and IL-18 (20 ng/ml), for 5-6 days. On day 2 of culture, the compound of Formula (II) (300 nM) or tofacitinib (400 nM) was added. T cell expansion and NK cell expansion were assessed by immunostaining for CD3 (T cells) or CD56 (NK cells). The graphs in FIGS. 34-37 show mean±SEM, with p-values from the Dunn's multiple comparison test (*p<0.05; **p<0.01; ***p<0.001; ****p<0.0001). FIG. 38 provides images of staining for CD3 and CD56 in hair follicles (scale bar=50 μm).

Test [4] has the same test system. The experiment in a line: Therapeutic assay: compound added after IL-12+IL-18-induced immune privilege collapse, MHC class I and II expression. In kind it is cell-based. The text has this:
The above assays were adapted to investigate whether TYK2 inhibition can inhibit ongoing IL-12+IL-18-mediated hair follicle immune privilege collapse, and thus whether TYK2 inhibition is a viable therapeutic strategy for treating alopecia areata. In these assays, immune privilege collapse was first induced by treatment with IL-12+IL-18, followed by the addition of the compound of Formula (II).
To assess whether TYK2 inhibition could restore hair follicle immune privilege, 21-31 hair follicles, obtained from 3-4 independent healthy donors, were cultured with vehicle, or with IL-12 (3 ng/mL) and IL-18 (20 ng/ml), for 5-6 days. On day 2 of culture, the compound of Formula (II) (300 nM) or tofacitinib (400 nM) was added until day 5-6. MHC class I expression and MHC class II expression were measured, as was done previously. The graphs in FIGS. 28-31 show mean±SEM, with p-values from the Dunn's multiple comparison test (*p<0.05; **p<0.01; ***p<0.001; ****p<0.0001). FIGS. 32 and 33 show staining of MHC-I and MHC-II, respectively, in hair follicles (scale bar=100 μm). […] As discussed above, MHC class I and II are markers of immune privilege collapse.

The test system is the same in test [5]. The test is described as follows: Prophylactic assay: pre-treatment before IL-12+IL-18, CD3+ T cell and CD56+ NK cell quantification. The note with it: pre-treatment 300 nM, 5-6 days; IL-12+IL-18 added on day 2. In kind it is cell-based. As to the method: as §1
The effect of pre-treatment with the compound of Formula (II) on T cell and NK cell expansion following IL-12 and IL-18 stimulation was also examined. 22-40 hair follicles, obtained from 4-5 independent healthy donors, were incubated with vehicle, with the compound of Formula (II) (300 nM), or with tofacitinib (400 nM) for 5-6 days. On day 2 of culture, vehicle, or IL-12 (3 ng/ml) and IL-18 (20 ng/mL) were added. Resident immune cell populations were assessed by quantification of CD3-positive cells and of CD56-positive cells. FIGS. 23-27 provide the results. The graphs in FIGS. 23-26 show mean±SEM and results of the Dunn's multiple comparison test (*p<0.05; ***p<0.001). […] Pre-treatment with the compound of Formula (II) prevented an elevation of CD3+ T cell frequency and of CD56+ NK cell frequency, consistent with the results above.

Setting [6] is: 300 nM for 5-6 days, IL-12 3 ng/mL and IL-18 20 ng/mL added on day 2.
Where [7] appears, read: 300 nM added on day 2 until day 5-6 of IL-12+IL-18 culture.
Setting [8] is: 400 nM added on day 2 until day 5-6 of IL-12+IL-18 culture.

Turning to `[2H]C([2H])([2H])NC(=O)c1cnc(NC(=O)C2CC2)cc1Nc1cccc(-c2ncc(F)cn2)c1OC` [compound of Formula (II)], in test [1] (setting [6]), the “IL-12+IL-18-mediated upregulation of MHC class I in the outer root sheath” value was “prevented” and the “IL-12+IL-18-mediated upregulation of MHC class II in the outer root sheath” value is reported as “prevented”. Besides, the “effect on MHC class I and II upregulation compared with tofacitinib” value in test [1] (compound 300 nM versus tofacitinib 400 nM, prophylactic) is “greater than the effect observed with tofacitinib”. Besides, the “IL-12 and IL-18-induced immune privilege collapse of hair follicles” value in test [1] (pre-treatment, 300 nM) is given as “prevented”. Further, the “IFNγ release into the culture medium” value in test [2] is recorded as “inhibiting IFNγ release”. In test [3], the “NK cell expansion induced by IL-12 and IL-18 (hair follicle epithelium and mesenchyme)” value is on record as “reversed”; the “T cell expansion induced by IL-12 and IL-18 (hair follicle epithelium and mesenchyme)” value is listed as “reversed”. Besides, in test [4] (setting [7]), the “IL-12+IL-18-induced expression of MHC class I” value was “significantly reduced” and the “IL-12+IL-18-induced expression of MHC class II” value is reported as “significantly reduced”. Further, in test [5], the “elevation of CD3+ T cell frequency” value is “prevented” and the “elevation of CD56+ NK cell frequency” value is “prevented”.
For `C[C@@H]1CCN(C(=O)CC#N)C[C@@H]1N(C)c1ncnc2[nH]ccc12` [tofacitinib, reference compound], the “IFNγ release into the culture medium” value in test [2] is “did not decrease”. The “restoration of IFNγ secretion to baseline” value in test [2] (therapeutic assay: IL-12+IL-18 first, then compound added) is “such restoration was not observed”. In test [4] (setting [8]), the “IL-12+IL-18-induced expression of MHC class I” value is given as “significantly reduced” and the “IL-12+IL-18-induced expression of MHC class II” value is “significantly reduced”.
